Measurements as given in patent publication US20050074451A1, “Methods and compositions for treating rheumatoid arthritis” (Elan Pharmaceuticals, Inc., priority 2003, published 2005).
Values belong to the molecule of their own block, whether it stands above or below them.

Key:
[1] = rat, in vivo, 3 mg/kg
[2] = test system: rat ClA model; test: Rat ClA model, paw swelling and erythema, disease severity; type: in vivo; conditions: antibody 3 mg/kg i.v., compounds 30, 10, 3 mg/kg b.i.d.
Protocol: Anti alpha-4 antibodies, and the compounds of Formulae W and Y were tested in the rat ClA model according to the methods shown in Table 14 below.
(§1) The results in FIG. 6 show the results for compounds. There were 8 rats per group in the efficacy study. Paw swelling and erythema were measured daily and the tarsal paws collected for histological analysis at the end of the study. Plasma which was heparinized was collected at 12 hours (i.e., the trough level) and at 4 horus after the last dose for compound measurement (FIG. 6).

[3] = test system: Lewis rats with adjuvant induced arthritis; test: Adjuvant-induced arthritis (AIA) in Lewis rats: paw swelling, erythema, clinical and histological scores; type: in vivo, rat
[4] = test system: DBA/1 LacJ mice with collagen-induced arthritis; test: Murine collagen-induced arthritis (ClA) model, clinical scores; type: in vivo, mouse; conditions: therapeutic ClA model, 100 mg/kg b.i.d. (Table 12)
Protocol: A murine collagen-induced arthritis (ClA) model was used to examine the pharmacological effect of anti-alpha4-integrin antibodies prophylactically, semi-therapeutically and therapeutically. Dosing of the antibody was begun on day 20 for the prophylactic animals. […] The results seen with the treatment of the ClA mice is seen in FIG. 1.
Peripheral blood leucocytes (PBLs) from mice treated with anti-alpha4, anti-α4β7 and anti-VCAM1 antibodies were collected at 4, 12 and 24 hours after antibody dosing. Cells were stained with goat anti-rat antibodies to confirm antibodies in circulation.
(§2) 100 DBA/1 LacJ male mice, ages 6-8 weeks were obtained from Jackson Laboratories. The mice were immunized at Day 0 as follows: 100 μg bovine type II collagen (Chondrex) in Complete Freund's adjuvant (CFA, Sigma) were injected into the mice. At Day 21, another 100 μg bovine type II collagen (Chondrex) in Incomplete Freund's Adjuvant (IFA, Sigma) was injected into the mice. Treatment with the compound began when the animals had the disease (i.e., 100% therapeutic).
The mice are scored daily after the boost. […] Treatment continued for 3-weeks-of dosing. Dosing was every other day for the antibody group and control group.
DBA/1 LacJ mice, aged 8 weeks will be immunized with bovine collagen (100 μg/mice) in CFA and re-challenge on day 21 in IFA.

[5] = Blood/plasma levels of compound in rat ClA model (relative to receptor saturation); type: in vivo; conditions: at 12 hours, all concentrations tested
Protocol: as §1

[6] = Blood levels of compound in murine ClA model; type: in vivo; conditions: male, DBA/1 LacJ, mouse, whole blood, 100 mg/kg b.i.d., 16 hours after dosing
Protocol: The effect of the compound of Formula P was evaluated in a therapeutica ClA model.
as §2

[7] = Plasma/blood compound levels in AIA rats (PK, relative to receptor saturation); conditions: 12 hours after dosing, all concentrations tested
[8] = test system: human lymphocyte binding to rat brain cells; conditions: rat brain cells stimulated with tumor necrosis factor; cited from earlier work
[9] = target: VLA-4 (Homo sapiens, UniProt P13612); conditions: cited from earlier work

- melting point: 158 to 160 °C
Molecule: Cc1ccc(S(=O)(=O)N2CCC[C@H]2C(=O)N[C@@H](Cc2ccc(OC(=O)N3CCN(CCO)CC3)cc2)C(=O)OC(C)(C)C)cc1

- blood levels of the compound relative to receptor saturation [5]: above receptor saturation
- concentration at 16 h [6]: 1000 ng/mL
- levels of the compound relative to receptor saturation [7]: above receptor saturation
Molecule: CCN(CC)c1ncc(N(CC)S(=O)(=O)c2ccc(Cl)cc2)c(NC(Cc2ccc(OC(=O)N3CCCC3)cc2)C(=O)O)n1 (stereo not drawn) [Formula P]
- disease progression [4]: no effect on disease progression
- disease ([3]; AIA rats, all concentrations tested (30, 10, 3 mg/kg b.i.d. p.o.)): ameliorate disease at all concentrations tested

The remaining lines, values behind:

Molecule: CC(C)OC(=O)[C@H](Cc1ccc(OC(=O)N2CCN(C)CC2)cc1)NC(=O)[C@H]1N(S(=O)(=O)c2cccnc2)CSC1(C)C [Formula N, N-[N-(3-pyridinesulfonyl)-L-3,3-dimethyl-4-thiaprolyl]-O-[I-methylpiperazin-4-ylcarbonyl]-L-tyrosine isopropyl ester]
- compound present in the blood relative to receptor saturation [1]: below receptor saturation
- disease severity [2]: neither the compound of Formula N nor Y had any impact on disease severity
- clinical and histological scores ([3]; AIA animal model, 30 mg/kg b.i.d.): ameliorate clinical and histological scores
- disease severity ([3]; AIA rats, 3 mg/kg): no effect on disease severity

B1: mu MAb 21.6: mouse monoclonal antibody specific for the α4 subunit of VLA-4; donor immunoglobulin of the humanized antibodies (antibody, V domains shown)
VH: EVQLQQSGAELVKPGASVKLSCTASGFNIKDTYIHCVKQRPEQGLEWIGRIDPANGYTKYDPKFQGKATITADTSSNTAYLQLSSLTSEDTAVYFCAREGYYGNYGVYAMDYWGQGTSVTVSSAK
VL: DIQMTQSPSSLSASLGGKVTITCKTSQDINKYMAWYQHKPGKRPRLLIHYTSALQPGIPSRFSGSGSGRDYSFNISNLEPEDIATYYCLQYDNLWTFGGGTKLEIK
- human lymphocyte binding to tissue cultures of rat brain cells [8]: inhibit
- binding affinity for VLA-4 [9]: about 10^9 M^−1
